Tests used:
Lin28b ZKD = molecular target: T1, Lin28b ZKD (Homo sapiens, UniProt Q6ZN17); experiment: Fluorescence polarization (FP) assay, Lin28b ZKD:pre-let-7d interaction; format: binding; settings: FP / EMSA
T1 sequence (Q6ZN17 127-166 limits assumed): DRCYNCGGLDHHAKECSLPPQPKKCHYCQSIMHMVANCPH
Protocol: We conducted two biochemical assays, FP and EMSA, to validate the predicted compounds. To optimize the FP assays, we performed a series of titrations using: (1) FAM-labeled pre-let-7d RNA probe, (2) Lin28b ZKD protein, and (3) non-labeled pre-let-7 probe as a competitor (Fig. 2A). These assays yielded the optimal concentrations required for the subsequent FP validation assays, namely 10 nM for the pre-let-7d probe and 1 μM for Lin28b ZKD protein. The FP signal from the free probe was set as 0%, while the signal from the probe-ZKD complex in the absence of compounds was set as 100%. C1632 was used as a control Lin28 inhibitor (Fig. 2B). […] Since the docking pocket is almost identical between Lin28a and Lin28b homologs, we repeated the FP assays using Lin28a ZKD (Figure S2).
The fluorescein amidites (FAM)-tagged pre-Let-7d probe with the sequence of […] was purchased from Integrated DNA Technologies (IDT). The probe at the concentrations ranging from 1 nM to 50 uM was incubated with Lin28B (ZKD) or Lin28 (CSD+ZKD) to a final volume of 30 uL at room temperature for 20 min. To read the fluorescence, a TECAN 500 machine was used. Fluorescence polarization was calculated using the following equation:
P=(Fparrallel−Fperpendicular)/(Fparrallel+FperpendicularP)
where P is the fluorescence polarization reading, F parallel is the fluorescence intensity acquired from the parallel excitation plane, and F perpendicular is the fluorescence intensity acquired from the perpendicular direction of the excitation plane. The total fluorescence intensity is estimated using the following equation:
F=Fparallel+2FperpendicularF.
All the raw FP signal data from the TECAN 500 FP results were analyzed using Prism 8.0 (GraphPad, San Diego, CA, USA); normalized curves were plotted and IC50 values were estimated. All FP data were repeated three to five times.
Figure S1. Lin28b ZKD protein was incubated with the indicated compounds at the concentration of 0, 0.1, 0.2, 0.5, 1, 2, 5, 10, 20, 50, 100, and 200uM. FP signals were measured and plotted relative to that from vehicle.

[1] = system: Du145 (Lin28b-negative line); experiment: Cell proliferation (Incucyte), Du145 cells; format: cell-based
Excerpt: To further evaluate whether the suppressive effects of Ln268 are specific to Lin28-positive cancer cells, we compared cell growth rates of DuNE (Lin28b-positive line) and Du145 (Lin28b-negative line), both of which are Lin28a-negative. DuNE has the same genomic background with Du145 except for the transduction of the SRRM4 gene. […] Furthermore, Ln268 had no impact on the cell growth of DuNE(KO) cells, in which the Lin28b gene was knocked out by CRISPR (Fig. 5C). […] We also tested several ovarian and endometrial cancer cell lines with different Lin28a and Lin28b expression profiles (Fig. 5E).

DuNE cells [2] = experiment: Drug-drug interaction (SynergyFinder) in DuNE cells; format: cell-based; settings: score higher than 10 = synergistic
Protocol: Fig. 6 Ln268 enhances stress inducers to inhibit cancer cell growth. A, B DuNE cells were transfected with GFP-tagged Lin28b together with either RFP-tagged G3BP1, YB-1, or DCP1. Cells were then challenged with ARS (A), cisplatin (CP) or etoposide (etop) (B) to induce a stress condition. Confocal microscope detected the subcellular localization of Lin28b. C, D Du145, DuNE and DuNE(KO) cells were treated with ARS (C), cisplatin (CP) or etoposide (etop) (D). Percentage of cells forming SGs was counted in five random fields from two replicate experiments. E DuNE and DuNE(KO) cells were treated with ARS, cisplatin or etoposide. Cell viability was measured by Incucyte. F DuNE cells were transfected with GFP-tagged Lin28b and treated with ARS together with C1632, Ln15, Ln268, or RNase. Confocal microscope detected SGs formation mediated by Lin28b. Fluorescence images were captured, and SGs sizes and numbers were calculated as shown. […] Drug interactions were calculated by SynergyFinder, with a synergy score higher than 10 representing synergistic relationship. […]
We subsequently investigated whether Ln268 could potentiate anticancer effects of stress inducers to block cancer cell growth in vitro. First, we determined the IC50 values of each inhibitor, which were then used to formulate drug-drug interactions of Ln268 with cisplatin, etoposide, or ARS (Figure S5). […]

DuNE cells [3] = experiment: Cell cycle analysis by FACS, DuNE cells; format: cell-based; settings: 0-20 μM, 144 h
Excerpt: To further compare the potency of Ln268 with C1632 and Ln15 in suppressing DuNE cell growth, we also measured cell growth rates under […] conditions (Fig. 4E). […] In addition, we used FACS assays to confirm that Ln268-mediated cell growth inhibition was due to its effects on blocking cancer cell cycling from the G1 phase towards the S and M phases (Fig. 4F). […] In summary, we confirmed that Ln268 is a potent Lin28 inhibitor that blocks the CSC phenotype of cancer cells, suppresses formation of 3D colonies, and inhibits cancer cell proliferation.

Structure (SMILES): O=c1[nH]c(Nc2ccc(F)cc2O)cs1 [Ln268]
- activity in protein-based assays (Lin28b ZKD): performed less effectively than Ln15
- effect on Du145 cell growth and cell morphology [1]: no impact
- synergy score, Ln268 + cisplatin (DuNE cells [2]): 19.39
- synergy score, Ln268 + etoposide (DuNE cells [2]): 12.77
- cell cycle effect (FACS) (DuNE cells [3]): arrested in G2/M in a dose-dependent manner

From PMC11725581, “Developing novel Lin28 inhibitors by computer aided drug design” (Cell Death Discovery, 2025)
